Source: patent EP0670826B1, “FATTY ACID DERIVATIVES AND PHARMACEUTICAL COMPOSITIONS CONTAINING THEM” (YISSUM RESEARCH DEVELOPMENT COMPANY OF THE HEBREW …, priority 1992, dated 1994)

Legend:
[1] = system: Arachidonic Acid-Induced Paw Edema; experiment: arachidonic acid-induced paw edema; assay type: in vivo; conditions: Mus musculus, po, compared to vehicle treated controls (peanut oil orally), N=5 mice/group, read-out: percent inhibition of paw edema; for inhibition at 0.05 mg/kg: dose 0.050 mg/kg; for inhibition at 0.1 mg/kg: dose 0.100 mg/kg; for inhibition at 0.25 mg/kg: dose 0.250 mg/kg
Protocol: The compounds were tested by a method reported by W. Calhoun et al., Agents and Actions, 21, 306-a309 (1987). Water was substituted for mercury as the displacement medium. PAF (1.0 µg) or arachidonic acid (1.0mg) dissolved in 50 µl of 5% ethanol in saline was injected s.c. into the plantar surface of the right hind paw of female mice (20-25g). The mice were under ether anesthesia during this procedure. The volume of the right foot was measured to the level of the lateral malleous by water displacement before treatment and 15 min after PAF injection or 30 min after arachidonic injection. The change in paw volume was calculated for each mouse.

[2] = system: emesia caused by an antieoplastic drug (cisplatin); experiment: antiemetic activity against cisplatin-caused emesis; assay type: in vivo; conditions: Columbidae, sc, in pigeons, administered subcutaneously, read-out: Reduction of vomiting(50%)
Protocol: The compounds also tested in pigeons against emesia caused by an antieoplastic drug (cisplatin) according to the method described in Feigenbaum et al., Eur. J. Pharmacol. 169, 159-165 (1989). Representative results are presented in Table I. The compounds were dissolved as described above for the tests on analgesia, and administered subcutaneously. The injection volume was 1.0 ml/kg body weight.

mice = experiment: standard hot plate test (analgesia); assay type: in vivo; conditions: Mus musculus; in mice, intravenous injection in the tail vein; read-out: Analgesia ED=50
Protocol: Analgesia. The novel compounds were tested in the standard hot plate test.
Represenatative results are presented in Table I. The compounds were dissolved in a detergent (Emulphor): ethanol: saline (5:5:90) and administered by intravenous injection in the tail vein with an injection volume of 0.1 ml/10g of body weight.

mouse vas deferens = experiment: electrically-evoked twitch response of the mouse vas deferens
Protocol: R.G. Pertwee, L.A. Stevenson, D.B. Elrick, R. Mechoulam, A.D. Corbett, Brit. J. Pharmacol. 105, 980 (1992). […] The structure of anandamide was established by mass spectrometry (MS) and nuclear magnetic resonance (NMR) spectroscopy. Additional data were obtained from the GC-MS and CID measurements of the trimethylsilyl (TMS) derivative of the material.
Fig. 2. Inhibition of vas deferens twitch response by natural anandamide. Vasa deferentia obtained from MFI mice were mounted in 4 ml siliconized organ baths under an initial tension of 0.5 g. The baths contained Mg++ -Free Krebs solution which was kept at 37 C and bubbled with 95% 02 and 5% CO2 . Tissues were stimulated supramaximally with 0.5 s trains of 3 pulses (train frequency 0.1 Hz: pulse duration 0.5 ms). Isometric contractions were recorded. Natural anandamide was dispersed in Tween 80 and saline (see ref. 12) and added in volumes of 40 µl.

cannabinoid receptor = target: T1, cannabinoid receptor (Rattus norvegicus, UniProt P20272); experiment: centrifugation radioligand binding assay with [3H]HU-243 on synaptosomal membranes
T1 construct: Synaptosomal membranes were prepared from rat whole brain-minus brainstem; from tissue; host or cells: rat whole brain minus brainstem, synaptosomal membranes (Sprague-Dawley males)
T1 sequence (P20272 whole entry): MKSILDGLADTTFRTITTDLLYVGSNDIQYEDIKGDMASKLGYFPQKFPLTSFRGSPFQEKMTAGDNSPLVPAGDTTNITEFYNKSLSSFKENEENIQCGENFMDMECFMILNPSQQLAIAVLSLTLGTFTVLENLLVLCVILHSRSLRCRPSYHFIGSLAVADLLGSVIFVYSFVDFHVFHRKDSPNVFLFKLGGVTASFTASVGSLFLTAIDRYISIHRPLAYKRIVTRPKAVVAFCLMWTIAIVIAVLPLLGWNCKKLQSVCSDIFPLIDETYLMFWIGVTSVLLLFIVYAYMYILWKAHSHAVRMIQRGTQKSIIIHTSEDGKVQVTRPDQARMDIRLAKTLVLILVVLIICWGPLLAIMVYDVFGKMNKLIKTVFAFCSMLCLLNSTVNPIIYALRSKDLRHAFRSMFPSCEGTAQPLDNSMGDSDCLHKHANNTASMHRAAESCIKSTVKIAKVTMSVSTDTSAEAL
Protocol: To screen for endogenous cannabinoid compounds there were tested brain-derived fractions using a centrifugation radioligand binding assay. […] Particular attention was paid to the binding of [^3H]HU-243 to the siliconized polypropylene microfuge tubes in which the assay was conducted. Normally, about 15-20% of the added [^3H]HU-243 adheres to the microfuge tube, with the amount increasing slightly when unlabelled cannabinoid drugs displace the radioligand from the receptor.
Synaptosomal membranes were prepared from rat whole brain-minus brainstem (Sprague-Dawley males, 430-470g). [^3H]HU-243 (45-55 pM) was incubated with synaptosomal membranes (protein content 3-4 µg) for 90 min at 30°C with either the indicated concentrations of anandamide or the vehicle alone (fatty acid-free bovine serum albumin, final concentration-0.5 mg/ml). Bound and free radioligand were separated by centrifugation (see ref. 8 for full details of the assay). The data were normalized to 100% of specific binding, which was determined with 50 nM unlabeled HU-243. The amount of specific binding was 77-82% of the total radioactivity bound to the membranes. Data points (□, ▲) represent the average of triplicate determinations from two independent experiments.

[3] = system: intraocular pressure (I.O.P.); experiment: antiglaucoma activity in stable glaucoma induced by chymotrypsin injection into the eye; assay type: in vivo; conditions: 0.01% aq. solution, rabbits
Protocol: The compounds were also tested for antiglaucoma activity in rabbits with stable glaucoma induced by δ-chymotrypsin injection into the eye as described in detail in R. Mechoulam et al., On the therapeutic possiblities of some cannabinoids in "The Therapeutic Potential of Marihuana" (eds S. Cohen. R.C. Stillman) Plenum Press, New York, 1975. pp. 35-48). The compounds were compared in activity to that of pilocarpine (a standard antiglaucoma drug) which at 0.01% aq. solution reduces the intraocular pressure (I.O.P.) and delays recovery to half time of the original I.O.P. about 30 hours. […] The compounds were dissolved as described for analgesia and further diluted with saline to obtain the required concentration.

Compound	inhibition at 0.05 mg/kg [1]	inhibition at 0.1 mg/kg [1]	inhibition at 0.25 mg/kg [1]	ED50 [2]	ED50 (mice)	further results
CC/C=C\C/C=C\C/C=C\C/C=C\C/C=C\C/C=C\CCC(=O)NCCO [4,7,10,13,16,19-docosahexaenylethanolamide]	52.4%	66.8%	72%	4.8 mg/kg	6.1 mg/kg	
CCCCC/C=C\C/C=C\C/C=C\C/C=C\CCCC(=O)NCCO [Arachidonylethanolamide, 5,8,11,14-icosatetraenamide, (N,-2-hydroxyethyl)-(all-Z)]	74.2%	98%	100%	2.5 mg/kg	4.2 mg/kg	inhibition at 0.01 mg/kg ([1]; dose 0.010 mg/kg): 56.2%; inhibition at 0.025 mg/kg ([1]; dose 0.025 mg/kg): 58.4%; inhibition of the twitch response (mouse vas deferens; electrically-evoked, mouse vas deferens): concentration-dependent inhibition; reversal of the inhibition of the twitch response by naloxone (mouse vas deferens; naloxone 300 nM): not reversed
CCCCC/C=C\C/C=C\C/C=C\C/C=C\CCCC(=O)NCC(C)(C)O [arachidonoyl-β-dimethylethanolamide]						Ki (cannabinoid receptor; synthetic compounds, prepared and tested): 162 ± 34.1 nM
CCCCC/C=C\C/C=C\C/C=C\C/C=C\CCCCCC(=O)NCCO [cis-7,10,13,16-docosatetraenoylethanolamide]						Ki (cannabinoid receptor; compounds isolated from the brain and synthesized): 34.4 ± 3.2 nM
CC[C@@H]1C(=O)OC[C@@H]1Cc1cncn1C [pilocarpine]						delays recovery to half time of the original I.O.P. [3]: about 30 hours
